Data on 15 compounds can be found in ChEMBL document CHEMBL5550099, “Synthesis and biological activity of 11-Oxygenated and heterocyclic estrone analogs in pancreatic cancer monolayers and 3D spheroids” (Bioorg Med Chem, 2024).

The test system of one test is ASPC1. In words: Cytotoxicity against human ASPC1 cells incubated for 48 hrs by MTT assay. It is filed as functional, cell-based. As to conditions: ASPC1, 48 h.
Test [1] concerns PANC-1. As to the kind of experiment: Cytotoxicity against human PANC-1 cells incubated for 48 hrs by MTT assay. The class given is functional, cell-based. As to conditions: PANC-1, 48 h.
The test system of another test is BXPC-3. In words: Cytotoxicity against human BXPC-3 cells incubated for 48 hrs by MTT assay. The class given is functional, cell-based. Conditions: BXPC-3, 48 h.
Test [2] has as its system PANC-1. As to the kind of experiment: Cytotoxicity against human PANC-1 cells cultured as 3D spheroids incubated for 48 hrs by Cell-titer glo luminescence assay. The class given is functional, cell-based. As to conditions: PANC-1, 48 h.
For test [3], the system named is PANC-1. In words: Cytotoxicity against human PANC-1 cells co-cultured with human pancreatic stellate cells incubated for 48 hrs by Cell-titer glo luminescence assay. It is filed as functional, cell-based. As to conditions: PANC-1, 48 h.
For test [4], the system named is PANC-1. In words: Induction of apoptosis in human PANC-1 cells cultured as 3D spheroids assessed as fold increase in caspase-3/7 activity at 0.1 uM incubated for 48 hrs by Glo-max luminescence assay. It is filed as functional.
In test [5] the test system is PANC-1. As to the kind of experiment: Induction of apoptosis in human PANC-1 cells cultured as 3D spheroids assessed as decrease in caspase-3/7 activity by measuring reduction in cell number at 1 to 10 uM incubated for 48 hrs by Glo-max luminescence assay. The class given is functional, cell-based. As to conditions: dose 1-10 µM.
The subject of test [6] is PANC-1. As to the kind of experiment: Induction of cell cycle arrest in human PANC-1 cells assessed as accumulation of cells at G2 phase at IC50 measured after 72 hrs by propidium iodide/RNase 141 staining based flow cytometry. The class given is functional.
Test [7] relates to PANC-1. In words: Cytotoxicity against human PANC-1 cells co-cultured with human pancreatic stellate cells incubated for 48 hrs by MTT assay. It is filed as functional, cell-based.
For test [8], the system named is PANC-1. As to the kind of experiment: Induction of apoptosis in human PANC-1 cells co-cultured with human pancreatic stellate cells assessed as fold increase in caspase-3/7 activity at 0.1 uM incubated for 48 hrs by Glo-max luminescence assay. The class given is functional.
In test [9] the test system is PANC-1. In words: Induction of apoptosis in human PANC-1 cells co-cultured with human pancreatic stellate cells assessed as decrease in caspase-3/7 activity by measuring reduction in cell number at 1 to 10 uM incubated for 48 hrs by Glo-max luminescence assay. The class given is functional, cell-based. Conditions: dose 1-10 µM.
For test [10], the system named is PANC-1. In words: Induction of cell cycle arrest in human PANC-1 cells assessed as accumulation of cells at G1 phase at IC50 measured after 72 hrs by propidium iodide/RNase 141 staining based flow cytometry. It is filed as functional.
The test system of test [11] is PANC-1. As to the kind of experiment: Cytotoxicity against human PANC-1 cells cultured as 3D spheroids assessed as inhibition of spheroid growth rate at 10 uM measured every two days by microscopic analysis. The class given is functional, cell-based.
Test [12] has as its system PANC-1. In words: Cytotoxicity against human PANC-1 cells co-cultured with human pancreatic stellate cells assessed as inhibition of spheroid growth rate at 10 uM measured every two days by microscopic analysis. The class given is functional, cell-based.
The test system of test [13] is PANC-1. In words: Induction of apoptosis in human PANC-1 cells cultured as 3D spheroids assessed as increase in caspase-3/7 activity upto 50 uM incubated for 48 hrs by Glo-max luminescence assay relative to control. The class given is functional. As to conditions: up to 50 µM.
Test [14] has as its system PANC-1. In words: Cytotoxicity against human PANC-1 cells cultured as 3D spheroids assessed as reduction in spheroid growth rate at 0.1 to 100 uM measured every two days by microscopic analysis. The class given is functional, cell-based. Conditions: dose 0.1-100 µM.
The test system of test [15] is PANC-1. In words: Cytotoxicity against human PANC-1 cells co-cultured with human pancreatic stellate cells assessed as reduction in spheroid growth rate at 0.1 to 100 uM measured every two days by microscopic analysis. The class given is functional, cell-based. As to conditions: dose 0.1-100 µM.
Test [16] concerns PANC-1. In words: Induction of apoptosis in human PANC-1 cells co-cultured with human pancreatic stellate cells assessed as increase in caspase-3/7 activity upto 50 uM incubated for 48 hrs by Glo-max luminescence assay relative to control. The class given is functional. As to conditions: up to 50 µM.

The source made the active and inactive calls. The calls are words filed in the database; no cut-off is given here.

`COc1ccc2c(c1)CC[C@@H]1[C@@H]2CC[C@]2(C)C([C@@](C)(O)C(=O)/C=C/c3cccs3)CC[C@@H]12` (some centres undefined): the IC50 in the test with ASPC1 is greater than 50 µM; with PANC-1 [1], 38.2 µM.
Turning to `COc1ccc2c(c1)CC[C@@H]1[C@@H]2[C@H](O)C[C@]2(C)C([C@@](C)(O)C(=O)/C=C/C(C)(C)O)CC[C@@H]12` (some centres undefined), the IC50 came out at 17.3 µM in the test with ASPC1; 11.8 µM with PANC-1 [1]; 10.1 µM in the test on BXPC-3; 37.5 µM in the test with PANC-1 [2]; 39.5 µM with PANC-1 [3]. The “fold change (FC)” value with PANC-1 [4] and with PANC-1 [8] was 1.5 throughout. The outcome in the test with PANC-1 [5], in the test on PANC-1 [6], with PANC-1 [7] and in the test with PANC-1 [9] was Active.
On to `C[C@](O)(C(=O)/C=C/c1ccc(Cl)s1)C1CC[C@H]2[C@@H]3CCc4cc(O)ccc4[C@H]3CC[C@]12C` (some centres undefined), for which the figures for the IC50 in the test on ASPC1 and with PANC-1 [1] were greater than 50 µM and 39.8 µM, respectively.
In the same order, the values of `COc1ccc2c(c1)CC[C@@H]1[C@@H]2CC[C@]2(C)C([C@@](C)(O)C(=O)/C=C/c3ccc(Cl)s3)CC[C@@H]12` (some centres undefined) are greater than 50 µM and 33.4 µM.
Regarding `COc1ccc2c(c1)CC[C@@H]1[C@@H]2C(=O)C[C@]2(C)C([C@@](C)(O)C(=O)/C=C/c3ccc(C(F)(F)F)cc3)CC[C@@H]12` (some centres undefined), the IC50 in the test with ASPC1 was found to be 4.17 µM; in the test on PANC-1 [1], 5.28 µM; in the test on BXPC-3, 5.7 µM; in the test with PANC-1 [2], 21 µM; with PANC-1 [3], 24.3 µM. Also, the “fold change (FC)” value with PANC-1 [4] and in the test on PANC-1 [8] was 1.5 throughout. The result in the test with PANC-1 [5], with PANC-1 [10], in the test on PANC-1 [11], in the test on PANC-1 [12], with PANC-1 [7] and in the test with PANC-1 [9] was Active.
Turning to `C[C@](O)(C(=O)/C=C/c1ccc(Cl)s1)C1CC[C@H]2[C@@H]3CCc4cc(OS(N)(=O)=O)ccc4[C@H]3CC[C@]12C` (some centres undefined), the IC50 with ASPC1 and with PANC-1 [1] was greater than 50 µM in each case.
For `COc1ccc2c(c1)CC[C@@H]1[C@@H]2CC[C@]2(C)C([C@@](C)(O)C(=O)/C=C/c3ccc(C)s3)CC[C@@H]12` (some centres undefined), the IC50 in the test on ASPC1 and in the test with PANC-1 [1] was greater than 50 µM throughout.
For the compound `Nc1ccn([C@@H]2O[C@H](CO)[C@@H](O)C2(F)F)c(=O)n1` [GEMCITABINE], the IC50 in the test with ASPC1, with PANC-1 [1] and in the test on BXPC-3 was greater than 50 µM throughout. The Activity in the test with PANC-1 [13] and with PANC-1 [16] was 20% throughout. Besides, the outcome with PANC-1 [14] and in the test on PANC-1 [15] was Active.
For `C[C@](O)(C(=O)/C=C/c1cccs1)C1CC[C@H]2[C@@H]3CCc4cc(O)ccc4[C@H]3CC[C@]12C` (some centres undefined), the figures for the IC50 with ASPC1 and in the test with PANC-1 [1] were greater than 50 µM and 41.7 µM, respectively.
With `COc1ccc2c(c1)CC[C@@H]1[C@@H]2CC[C@]2(C)C([C@@](C)(O)C(=O)/C=C/c3ccc(Cl)o3)CC[C@@H]12` (some centres undefined), the IC50 in the test with ASPC1 was 40.2 µM; in the test on PANC-1 [1] it was greater than 50 µM.
Consider `COc1ccc2c(c1)CC[C@@H]1[C@@H]2[C@H](O)C[C@]2(C)C([C@@](C)(O)C(=O)/C=C/c3ccc(C(F)(F)F)cc3)CC[C@@H]12` (some centres undefined), for which the IC50 in the test with ASPC1 is 11.5 µM; in the test on PANC-1 [1], 6.52 µM; with BXPC-3, 6.07 µM; in the test on PANC-1 [2], 37.5 µM; with PANC-1 [3], greater than 50 µM. For the same compound, the “fold change (FC)” value with PANC-1 [4] and in the test on PANC-1 [8] was 1.5 throughout. Besides, the result with PANC-1 [5], with PANC-1 [6], in the test on PANC-1 [7] and in the test on PANC-1 [9] was Active.
With `C[C@](O)(C(=O)/C=C/c1cccs1)C1CC[C@H]2[C@@H]3CCc4cc(OS(N)(=O)=O)ccc4[C@H]3CC[C@]12C` (some centres undefined), the IC50 in the test on ASPC1 is 48.4 µM; with PANC-1 [1], 53 µM.
Consider `C[C@](O)(C(=O)/C=C/c1ccc(Cl)o1)C1CC[C@H]2[C@@H]3CCc4cc(O)ccc4[C@H]3CC[C@]12C` (some centres undefined), for which the IC50 is greater than 50 µM with ASPC1 and 10.2 µM with PANC-1 [1].
Take `Cc1ccc(/C=C/C(=O)[C@](C)(O)C2CC[C@H]3[C@@H]4CCc5cc(OS(N)(=O)=O)ccc5[C@H]4CC[C@]23C)s1` (some centres undefined): the IC50 was 38.4 µM in the test with ASPC1 and greater than 50 µM in the test on PANC-1 [1].
In the same order, the values of `Cc1ccc(/C=C/C(=O)[C@](C)(O)C2CC[C@H]3[C@@H]4CCc5cc(O)ccc5[C@H]4CC[C@]23C)s1` (some centres undefined) are 46.5 µM and greater than 50 µM.
